Test results: patent EP4793271A1, “NEUROPROTECTIVE AGENT” (National Center of Neurology and Psychiatry, priority 2023, dated 2025)

Tests used:
[1] = system: primary cultured cells of mouse fetus-derived dorsal root ganglia (DRGs); experiment: Suppression of axonal degeneration after axotomy in DRG explant culture; assay type: cell-based; conditions: minimum concentration at which axonal degeneration was suppressed (DI 0.3 or less), 24 hours after axotomy; for minimal effective concentration: Mus musculus, read-out: Evaluation on protection against degeneration
Protocol: The compound of the present invention was studied for its protective effect against axonal injury using primary cultured cells of mouse fetus-derived dorsal root ganglia (DRGs).
DRGs were collected from a fetus derived from an ICR mouse (13.5 days of pregnancy). DRGs were cultured using a plate coated by incubation with 0.1 mg/mL poly-L-lysine at 4°C for 24 hours or longer, washing with PBS, and then incubation with 2.5 µg/mL Cultrex Mouse Laminin I at 37°C for 4 to 6 hours.
One of DRGs collected was plated to each well of the coated 24-well plate. The DRG was cultured in a nicotinamide-free medium for neuron (supplemented with 10% FBS, 1 mM glutamine, 50 ng/mL NGF2.5S, and penicillin-streptomycin) for 24 hours at maximum from the start of culture and then cultured in a nicotinamide-free medium for neuron (supplemented with 2% MACS NeuroBrew-21, 50 ng/mL NGF2.5S, 1% Glutamax, 20 µM uridine, 20 µM 5-fluoro-2'-deoxyuridine, and penicillin-streptomycin) for 7 to 8 days.
The nicotinamide-free medium for neuron was prepared so as to have the same constituents as those of the composition published in a previously reported paper (Brewer et al., J. Neuroscience Research 35: 567-576) except for nicotinamide with reference to this composition.
The test compound is dissolved in DMSO and added to cells such that the final concentration of DMSO is 0.1% (1000-fold dilution). 10 mM, 1 mM, 100 µM, 10 µM, 1 µM, and 100 nM samples of the test compound are prepared and added at a 1000-fold dilution to cells.
Axotomy was carried out by scooping out a cell body portion of the cultured DRG with a chip for a micropipette. The test compound was added at the following concentrations (final concentration: 10 µM, 1 µM, 100 nM, 10 nM, 1 nM, and 100 pM) within 30 minutes after axotomy. The compound was evaluated for its protective effect against axonal degeneration by imaging (Leica DMIL microscope, 20× objective lens) the state of neurites 24 hours after axotomy and evaluating the degree of degeneration. The degree of degeneration was quantified using a program uniquely developed using the R language. A degeneration index (DI) was used as an indicator for the degree of degeneration, and the ratio of the area of a fragmented axon to the total area of axons was calculated as defined in the equation of Expression 2. Suppressed axonal degeneration was evaluated when the value of DI was 0.3 or less. The minimum concentration at which axonal degeneration was suppressed was determined for each compound. Degeneratioin index (DI) = (Degenerated axons)/(All axons) [formula]
The axonal protective activity was evaluated as A ≤ 0.01 µM, 0.01 µM < B ≤ 0.1 µM, and 0.1 µM < C ≤ 1 µM depending on the minimum concentration at which axonal degeneration was suppressed.

hSARM1 = target: T1, hSARM1 (Homo sapiens, UniProt Q6SZW1); experiment: Human SARM1 activity measurement in HEK293 cells transiently transfected with ΔN-hSARM1 (PC6 fluorescent probe); assay type: cell-based; design: expressed in transfected cells; host or cells: HEK293, pcDNA3 expression vector; conditions: inhibition rate; compound 30 µM; PC6 50 µM; HEK293 cells expressing ΔN-hSARM1; approximately 48 hours from transfection; read-out: Evaluation on hSARM1 inhibitory
T1 sequence (Q6SZW1 28-724): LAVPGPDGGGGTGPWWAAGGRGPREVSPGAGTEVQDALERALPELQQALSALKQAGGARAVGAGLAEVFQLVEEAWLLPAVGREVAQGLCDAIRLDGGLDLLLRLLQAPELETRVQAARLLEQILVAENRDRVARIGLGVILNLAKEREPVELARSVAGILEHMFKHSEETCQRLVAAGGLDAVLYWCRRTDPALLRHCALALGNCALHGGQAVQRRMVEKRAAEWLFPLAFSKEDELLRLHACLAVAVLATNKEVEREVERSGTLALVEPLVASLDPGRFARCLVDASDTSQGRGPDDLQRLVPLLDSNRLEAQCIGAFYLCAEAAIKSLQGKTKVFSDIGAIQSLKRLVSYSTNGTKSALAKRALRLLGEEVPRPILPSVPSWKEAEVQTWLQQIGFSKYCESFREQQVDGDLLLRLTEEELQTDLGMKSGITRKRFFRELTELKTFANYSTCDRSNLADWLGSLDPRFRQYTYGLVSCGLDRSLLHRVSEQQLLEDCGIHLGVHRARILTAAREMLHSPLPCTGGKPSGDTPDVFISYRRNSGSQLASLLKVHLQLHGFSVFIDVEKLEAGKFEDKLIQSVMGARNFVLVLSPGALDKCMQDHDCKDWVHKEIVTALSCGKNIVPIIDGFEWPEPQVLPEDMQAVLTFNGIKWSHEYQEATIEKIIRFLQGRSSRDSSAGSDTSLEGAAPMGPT
Protocol: HEK293 cells cultured in a prepared medium of nicotinamide-free DMEM (Dulbecco's modified Eagle medium) supplemented with 10% FBS (BioSera), a 1% penicillin-streptomycin solution (FUJIFILM Wako Pure Chemical Corp.), 5 μM nicotinamide were inoculated at approximately 50,000 cells/well to a 96-well microplate, and the cells were cultured at 37°C under 5% CO2, transiently transfected on the next day with a pcDNA3 expression vector containing a DNA sequence (SEQ ID NO: 1) deficient in a mitochondrial targeting sequence encoded by an N-terminal 78-base sequence in cDNA encoding human sterile α- and armadillo-motif-containing protein (hSARM1) using PEI MAX(R) reagent (PolySciences Inc.), and forced to express ΔN-hSARM1 (SEQ ID NO: 2). Approximately 8 hours later, PC6, which reacts as a substrate of SARM1-specific base exchange reaction and functions as a fluorescent probe, was added thereto at a final concentration of 50 μM, and intracellular hSARM1 activity was measured (Li et al, eLife 2021 10: e67381). A compound for inhibitory activity evaluation was added at a final concentration of 30 μM at the same time with PC6, while dimethyl sulfoxide (Nacalai Tesque Inc.) was added to samples of a control group at the same time with PC6. The cells were incubated at 37°C under 5% CO2 for approximately 48 hours from transfection, followed by fluorescent signal measurement using SpectraMax M2 (Molecular Devices) (excitation: 405 nm, fluorescence: 525 nm, fluorescence cutoff: 515 nm). Results of this screening are reported as an inhibition rate (%) relative to a negative control defined as follows by using fluorescence intensity measured from a control group without transfection with ΔN-hSARM1 as a background whereas using fluorescence intensity measured from a control group transfected with ΔN-hSARM1 as the negative control. Inhibitory rate (%) = 100-(([…]-Background))/((Signalofthenegativecontrol-Background)) × 100 [formula] The nicotinamide-free medium was prepared so as to have the same composition as that of DMEM having known composition which is generally used in the art except for nicotinamide. […]

Row | SMILES | Evaluation on protection against degeneration [1] | minimal effective concentration [1] | inhibition at 30 µM (hSARM1)
1 | O=C(Cc1cccnc1)NCc1ccc(NC(=O)c2ccccc2)nc1 [Compound 141] | C (0.1 µM < C ≤ 1 µM) |  | 
2 | O=C(NCc1ccc(NC(=O)C23CC4CC(CC(C4)C2)C3)nc1)c1cccnc1 [Compound 142] |  | 0.01 to 0.1 µM | > 75%
3 | O=C(Cc1ccc(Cl)cc1)Nc1ccc(CNC(=O)c2cccnc2)cn1 [Compound 145] |  | ≤ 0.01 µM | > 75%
4 | O=C(COc1ccccc1)Nc1ccc(CNC(=O)c2cccnc2)cn1 [Compound 147] |  | ≤ 0.01 µM | > 75%
5 | O=C(Cc1ccccc1C(F)(F)F)Nc1ccc(CNC(=O)c2cccnc2)cn1 [Compound 155] |  | ≤ 0.01 µM | > 75%
6 | O=C(Cc1cccc(C(F)(F)F)c1)Nc1ccc(CNC(=O)c2cccnc2)cn1 [Compound 156] |  | ≤ 0.01 µM | > 75%
7 | CCC(=O)Nc1ccc(CNC(=O)c2cccnc2)cn1 [Compound 157] | A (A ≤ 0.01 µM) |  | > 10%
8 | O=C(CCc1ccc(OC(F)(F)F)cc1)Nc1ccc(CNC(=O)c2cccnc2)cn1 [Compound 170] |  | ≤ 0.01 µM | > 75%
9 | NCc1ccc(C(=O)N2CCC(CCCCNC(=O)/C=C/c3cccnc3)CC2)cc1 [compound 1] | A (A ≤ 0.01 µM) |  | > 75%
10 | O=C(/C=C/c1cccnc1)NCCCCCCN1CCN(CCO)CC1 [compound 3] |  | ≤ 0.01 µM | > 75%
11 | NCCOCCOCCOCCCCCCCCNC(=O)c1cccnc1 [compound 9] |  | ≤ 0.01 µM | > 75%
12 | O=C(/C=C/c1cccnc1)NCCCNC1CCN(C(=O)c2ccccc2)CC1 [compound 12] |  | 0.01 to 0.1 µM | > 75%
13 | O=C(/C=C/c1cccnc1)NCCOCCOc1ccc(CNC(=O)c2ccccc2)cc1 [compound 14] |  | ≤ 0.01 µM | > 75%
14 | O=C(/C=C/c1cccnc1)NCCCOc1cccc(O)c1 [compound 23] |  | ≤ 0.01 µM | > 75%
15 | COCOc1cccc(OCCCNC(=O)/C=C/c2cccnc2)c1 [compound 24] |  | ≤ 0.01 µM | > 75%
16 | O=C(/C=C/c1cccnc1)NCCOCCOc1cccc(O)c1 [compound 26] |  | ≤ 0.01 µM | > 75%
17 | COCOc1cccc(OCCOCCNC(=O)/C=C/c2cccnc2)c1 [compound 29] |  | ≤ 0.01 µM | > 75%
